# Legend:
# [1] = Indirect 1O2 scavenging assay (ICG photo-generator, DPBF probe); settings: 10^−5 M ICG and scavenger, 785 nm laser, 100 s
# Method: The ^1O2 scavenging assay was employed using a previously established indirect protocol from our research group. In brief, indocyanine green (ICG), from Sigma–Aldrich (St. Louis, MO, USA), was utilized to induce ^1O2 production in the presence of 5a and 5b. Ascorbic acid was used as a reference antioxidant agent, and a blank sample without ^1O2 scavengers was prepared. The reaction mixtures were exposed to a Micro Raman System R-3000 (Photonitech, Singapore, Singapore) laser diode,(λ = 785 nm, 190 mW power) for a total time of 100 s. To evaluate the ^1O2 scavenging activity of the compounds 5a,b, the degradation of 1,3-diphenylisobenzofuran (DPBF), obtained from Alfa Aesar (Haverhill, MA, USA), was measured using a V-730 spectrophotometer (Jasco International Co., Ltd., Tokyo, Japan). To determine the ^1O2 quantum yields (Φ(^1O2)) of ICG in the presence of the studied molecules, the following equation was used: Φ(^1O2) = Φ(^1O2) ^ICG × ((S × F^ICG)/(S^ICG × F)), where S represents the slope of the absorbance difference of DPBF over time, F is the absorption correction factor (F = 1 − 10^−OD), and OD is the optical density at the excitation wavelength, λ = 785 nm. The Φ(^1O2) equal to 15.0% of free ICG was used as a reference. The concentrations utilized in the experiment were 0.1 mM for DPBF and 10^−5 M for ICG and the ^1O2 scavengers. Free DPBF was used as a control.
# The efficacy of compounds 5a,b against ^1O2 was assessed using an indirect approach. ICG was used as a photo-induced ^1O2 generator alongside DPBF, serving as an indirect chemical probe capable of characterizing ^1O2 release in solution. This setup allowed us to evaluate the ^1O2 scavenging capacity of the tested molecules and compare their activity to a reference compound, specifically ascorbic acid. The samples were exposed to 785 nm laser radiation, and at 10-s intervals after irradiation, their UV-Vis absorption spectra were measured and analyzed (Figure 9). Subsequently, we determined the ^1O2 quantum yields (Φ(^1O2)) of ICG in the presence of 5a,b and ascorbic acid, using the Φ(^1O2) of free ICG of 15.0% as reference.
# [2] = DPPH radical scavenging assay; settings: for IC50: 30 min incubation, λ = 517 nm
# Method: The DPPH^• radical scavenging assay is based on transferring a hydrogen atom from the tested compounds to the violet stable free radical DPPH^• (2,2-diphenyl-1-picrylhydrazyl radical), converting it into a yellow compound. The assay was conducted using tested compounds and references in concentrations ranging from 2 to 50 µM, according to our adaptation of the protocol of Brand-Williams et al.. The absorbance of the samples is given by the remaining unreacted reagent radical, and it is inversely proportional to the amount of DPPH^• neutralized. The absorbance of the samples was measured at λ = 517 nm after 30 min of incubation in the dark at room temperature. The DPPH^• radical scavenging activity of the compounds was calculated using Equation (1):(1) DPPH^• scavenging (%)=control absorbance−sample absorbance/control absorbance×100
# [3] = Total Antioxidant Capacity (TAC) assay; settings: molar equivalents of reference compound
# Method: The results of the evaluation of the electron ability transfer of the tested compound were expressed as molar equivalents of the reference compound per one mol of the tested compound using the formula: % of control activity=sample absorbance/reference absorbance×100 The Total Antioxidant Capacity (TAC) assay operates on the principle of reducing molybdenum (VI) to molybdenum (V) by the antioxidants being assessed, resulting in the formation of a blue-green complex. This assay was performed following the methodology detailed in our previous publication, which was based on initial reports from the literature. […] These were then incubated in a water bath at 95 °C for 90 min. After cooling to room temperature, 1 mL of each solution was diluted with 1 mL of water. The absorbance of the solutions was subsequently measured at λ = 695 nm.
# [4] = Cell viability (resazurin) on BJ; format: cell-based; settings: human, BJ cells; for IC50 at 24 h: read-out: 24 h Exposure IC50 (cytotoxicity); for IC50 at 48 h: read-out: 48 h Exposure IC50 (cytotoxicity)
# Source text: (§1) The ARPE-19 cell line was purchased from CLS Cell Lines Service GmbH (Eppelheim, Germany) and cultured in Dulbecco’s modified Eagle’s medium/F-12 (HAM) 1:1 (Biological Industries, Beit, Israel). The medium was supplemented with 10% fetal bovine serum (FBS) (Thermo Fisher Scientific, Waltham, MA, USA) and 1% penicillin-streptomycin (Biosera, Cholet, France). The cancerous cell line A549 was purchased from ATCC (Manassas, VA, USA) and cultivated in high-glucose Dulbecco’s modified Eagle’s medium (DMEM 4.5 g/L). The normal BJ cell line was also purchased from ATCC (Manassas, VA, USA) and was cultivated in low-glucose Dulbecco’s modified Eagle’s medium (DMEM 1 g/L). The media was supplemented in both cases with 10% FBS. Cells were cultured in T75 flasks and incubated at 37 °C in a humidified incubator with 5% CO2 supplementation. For maintenance, the media was changed every 2–3 days, and when the confluence of the flask reached approximately 85%, the cells were either subcultured or further used in the experiments.
# (§2) ARPE-19 cells were seeded at a density of 2 × 10^4 cells/well and 1 × 10^4 cells/well (suspended in 100 µL) in 96-well plates for 24 h and 48 h, respectively. For the BJ cells, the seeding density was 0.5 × 10^4 cells/well and 0.3 × 10^4 cells/well for 24 h and 48 h, respectively, and for the A549 cells, 1.5 × 10^4 cells/well for 24 h and 0.75 × 10^4 cells/well for 48 h. As cells have different sizes and volumes, the different seeding densities were selected to reach a confluency of 80–90% by the end of the experiments. Cells were further exposed to the synthesized compounds for 24/48 h at concentrations ranging from 12.5 to 500 µM. After the incubation period, the exposure media was removed, the cells were washed with PBS, and further incubated with a 200 µM resazurin solution for 3 h as described in our previous report. The conversion of resazurin to the fluorescent resorufin compound by viable cells was measured at λexcitation = 550; λemission = 600, using SpectraMax iD3 (Molecular Devices, San Jose, CA, USA). The experiments were conducted in biological triplicate, each with a minimum of 3 technical replicates. The measured viability was expressed as relative values to the control (cells exposed only to the vehicle–culture medium containing 0.4% DMSO).
# [5] = Cell viability (resazurin) on A549; format: cell-based; settings: human, A549 cells; for IC50 at 24 h: A549, 24 h, read-out: 24 h Exposure IC50 (cytotoxicity); for IC50 at 48 h: A549, 48 h, read-out: 48 h Exposure IC50 (cytotoxicity)
# Source text: as §1, §2
Structure (SMILES),^1O2 quantum yield Φ(^1O2) of ICG in the presence of the scavenger [1],IC50 [2],fold higher activity than the reference compounds in the DPPH^• scavenging assay ([2]; compared to ascorbic acid and Trolox),TAC Eq Ascorbic Acid [3],IC50 at 24 h [4],IC50 at 48 h [4],IC50 at 24 h [5],IC50 at 48 h [5]
"C/C=C/C=N/Nc1nc(-c2ccc(O)c(O)c2)cs1.Cl [Compound 5a, 4-(2-(2-((1E,2E)-but-2-en-1-ylidene)hydrazineyl)thiazol-4-yl)benzene-1,2-diol hydrochloride]",11.1%,9.8 µM,up to 5 fold,2.82 Eq Ascorbic Acid,144 µM,162 µM,147 µM,109 µM
"CC1=C(/C=C/C(C)=N/Nc2nc(-c3ccc(O)c(O)c3)cs2)C(C)(C)CCC1.Cl [Compound 5b, 4-(2-(2-((2E,3E)-4-(2,6,6-trimethylcyclohex-1-en-1-yl)but-3-en-2-ylidene) hydrazineyl)thiazol-4-yl)benzene-1,2-diol hydrochloride]",11%,18.4 µM,,2.56 Eq Ascorbic Acid,141 µM,152 µM,167 µM,39.6 µM
